Source: patent publication US12319709B2, “Diaryl trehalose compounds and uses thereof” (THE UNIVERSITY OF MONTANA, priority 2018, dated 2025)

Experiments:
RAW264.7 cells = assay: Cytokine (TNFα) response of mouse macrophage cell line; Table 2 'Murine'; assay type: cell-based; design: Maximum cytokine response Murine: unit not given here; settings: NR = no response
Description: Compounds were also tested in a mouse macrophage cell line (FIG. 4B). RAW264.7 cells were subjected to increasing concentrations of the compounds and assessed for production of the cytokine TNFα.

[1] = system: peripheral blood mononuclear cells (PBMCs); assay: IL-6 induction in fresh human PBMCs; assay type: cell-based; settings: for Maximum cytokine response h-IL-6 / Minimal Effective Concentration h-IL-6: human IL-6, NR = no response
Description: Tumor necrosis factor alpha (TNFα) and IL-6 production in peripheral blood mononuclear cells (PBMCs) was measured after exposure to various concentrations of the DAT compounds synthesized as shown above. Initial studies focused on two different methods of delivery of the DAT compounds to PBMC cultures. In the first delivery method, the indicated derivative compound was dissolved in isopropanol, serially diluted, and then dried to the bottom of a tissue culture plate. In the second delivery method, the indicated derivative compound was dissolved in DMSO and serially diluted into tissue culture media. In each method, PBMCs were added to the compounds and incubated at 37° C. TNFα (FIG. 1A) and IL-6 (FIG. 1B) were measured after 18-24 hours after treatment by ELISA assay.
The isolated PBMCs were exposed to increasing concentrations of the indicated compounds resuspended in DMSO and serially diluted in media. IL-6 levels were determined from supernatants eighteen hours after treatment (FIG. 3).

| Structure (SMILES) | Maximum cytokine response Murine (RAW264.7 cells) | Minimal Effective Concentration Murine (RAW264.7 cells) [µM] | Maximum cytokine response h-IL-6 [1] [OD] | Minimal Effective Concentration h-IL-6 [1] [µM] | Maximum cytokine response Murine (RAW264.7 cells; listed as 1014) | Minimal Effective Concentration Murine (RAW264.7 cells; listed as 1014) [µM] | IL-6 production / activity in fresh PBMCs from multiple donors (in words) ([1]; compounds in DMSO serially diluted in media, supernatants 18 h after treatment, listed as 1014) |
| --- | --- | --- | --- | --- | --- | --- | --- |
| CC(C)(C)c1cc(CCC(=O)OC[C@H]2O[C@H](O[C@H]3O[C@H](COC(=O)CCc4cc(C(C)(C)C)c(O)c(C(C)(C)C)c4)[C@@H](O)[C@H](O)[C@H]3O)[C@H](O)[C@@H](O)[C@@H]2O)cc(C(C)(C)C)c1O [UM1086] | 3 | 0.13 | 3 | 33.3 |  |  |  |
| O=C(OC[C@H]1O[C@H](O[C@H]2O[C@H](COC(=O)c3ccc(C(F)(F)F)cc3C(F)(F)F)[C@@H](O)[C@H](O)[C@H]2O)[C@H](O)[C@@H](O)[C@@H]1O)c1ccc(C(F)(F)F)cc1C(F)(F)F [UM1084] | 2.9 | 33 | 3 | 100 |  |  |  |
| CCCCCCCCOc1cc(C(=O)OC[C@H]2O[C@H](O[C@H]3O[C@H](COC(=O)c4cc(OCCCCCCCC)c(OCCCCCCCC)c(OCCCCCCCC)c4)[C@@H](O)[C@H](O)[C@H]3O)[C@H](O)[C@@H](O)[C@@H]2O)cc(OCCCCCCCC)c1OCCCCCCCC [UM1098] | 0.04 | 3.4 | 3.4 | 11 |  |  |  |
| CCCCCOc1cc(OCCCCC)cc(C(=O)OC[C@H]2O[C@H](O[C@H]3O[C@H](COC(=O)c4cc(OCCCCC)cc(OCCCCC)c4)[C@@H](O)[C@H](O)[C@H]3O)[C@H](O)[C@@H](O)[C@@H]2O)c1 [UM1052] | 1.3 | 0.13 | 3.3 | 0.08 |  |  |  |
| CCCCCOc1cc(OCCCCC)cc(C(=O)NC[C@H]2O[C@H](O[C@H]3O[C@H](CNC(=O)c4cc(OCCCCC)cc(OCCCCC)c4)[C@@H](O)[C@H](O)[C@H]3O)[C@H](O)[C@@H](O)[C@@H]2O)c1 [UM1111] | 0.13 | 3.3 | 2.5 | 33.3 |  |  |  |
| CC(C)(C)c1cc(C(=O)OC[C@H]2O[C@H](O[C@H]3O[C@H](COC(=O)c4cc(C(C)(C)C)c(O)c(C(C)(C)C)c4)[C@@H](O)[C@H](O)[C@H]3O)[C@H](O)[C@@H](O)[C@@H]2O)cc(C(C)(C)C)c1O [UM1087] | 3 | 0.13 | 3 | 33.3 |  |  |  |
| Cc1cc(C(C)(C)C)cc(C)c1C(=O)OC[C@H]1O[C@H](O[C@H]2O[C@H](COC(=O)c3c(C)cc(C(C)(C)C)cc3C)[C@@H](O)[C@H](O)[C@H]2O)[C@H](O)[C@@H](O)[C@@H]1O [UM1116] | 0.005 | 3 | 2.3 | 100 |  |  |  |
| CCCCOc1cc(C(=O)OC[C@H]2O[C@H](O[C@H]3O[C@H](COC(=O)c4cc(OCCCC)c(OCCCC)c(OCCCC)c4)[C@@H](O)[C@H](O)[C@H]3O)[C@H](O)[C@@H](O)[C@@H]2O)cc(OCCCC)c1OCCCC [UM1096] | 0.005 | 3 | 3.2 | 2.5 |  |  |  |
| CCCCCCOc1cc(C(=O)OC[C@H]2O[C@H](O[C@H]3O[C@H](COC(=O)c4cc(OCCCCCC)c(OCCCCCC)c(OCCCCCC)c4)[C@@H](O)[C@H](O)[C@H]3O)[C@H](O)[C@@H](O)[C@@H]2O)cc(OCCCCCC)c1OCCCCCC [UM1097] | 0.005 | 3.4 | 3.3 | 3.7 |  |  |  |
| O=C(OC[C@H]1O[C@H](O[C@H]2O[C@H](COC(=O)c3c(C(F)(F)F)cccc3C(F)(F)F)[C@@H](O)[C@H](O)[C@H]2O)[C@H](O)[C@@H](O)[C@@H]1O)c1c(C(F)(F)F)cccc1C(F)(F)F [UM1065] | 2.5 | 100 | 3 | 3.7 |  |  |  |
| COc1cccc(/C=C/C(=O)OC[C@H]2O[C@H](O[C@H]3O[C@H](COC(=O)/C=C/c4cccc(OC)c4OC)[C@@H](O)[C@H](O)[C@H]3O)[C@H](O)[C@@H](O)[C@@H]2O)c1OC [UM1018] | 3.5 | 37 | 1.3 | 333 |  |  |  |
| Cc1ccc(C(=O)OC[C@H]2O[C@H](O[C@H]3O[C@H](COC(=O)c4ccc(C)cc4C(F)(F)F)[C@@H](O)[C@H](O)[C@H]3O)[C@H](O)[C@@H](O)[C@@H]2O)c(C(F)(F)F)c1 [UM1085] | 2.2 | 33 | 3 | 100 |  |  |  |
| CCCCCCCCCCOc1cc(C(=O)OC[C@H]2O[C@H](O[C@H]3O[C@H](COC(=O)c4cc(OCCCCCCCCCC)c(OCCCCCCCCCC)c(OCCCCCCCCCC)c4)[C@@H](O)[C@H](O)[C@H]3O)[C@H](O)[C@@H](O)[C@@H]2O)cc(OCCCCCCCCCC)c1OCCCCCCCCCC [UM1099] | 0.005 | 3.4 | 3.2 | 11 |  |  |  |
| Cc1ccccc1-c1cccc(C(=O)OC[C@H]2O[C@H](O[C@H]3O[C@H](COC(=O)c4cccc(-c5ccccc5C)c4)[C@@H](O)[C@H](O)[C@H]3O)[C@H](O)[C@@H](O)[C@@H]2O)c1 [UM1041] | 1.2 | 33 | 1.3 | 5 |  |  |  |
| O=C(OC[C@H]1O[C@H](O[C@H]2O[C@H](COC(=O)c3ccc(-c4ccccc4)cc3O)[C@@H](O)[C@H](O)[C@H]2O)[C@H](O)[C@@H](O)[C@@H]1O)c1ccc(-c2ccccc2)cc1O [UM1062] | 3 | 100 | 3 | 100 |  |  |  |
| CC(C)(C)c1cc(C(=O)NC[C@H]2O[C@H](O[C@H]3O[C@H](CNC(=O)c4cc(C(C)(C)C)cc(C(C)(C)C)c4)[C@@H](O)[C@H](O)[C@H]3O)[C@H](O)[C@@H](O)[C@@H]2O)cc(C(C)(C)C)c1 [UM1123] | 0.13 | 3.3 | 2.7 | 33.3 |  |  |  |
| CCCCCCOc1cc(OCCCCCC)cc(C(=O)OC[C@H]2O[C@H](O[C@H]3O[C@H](COC(=O)c4cc(OCCCCCC)cc(OCCCCCC)c4)[C@@H](O)[C@H](O)[C@H]3O)[C@H](O)[C@@H](O)[C@@H]2O)c1 [UM1092] | <.001 | 3.4 | 3.3 | 3.7 |  |  |  |
| COc1ccc(-c2ccc(C(=O)OC[C@H]3O[C@H](O[C@H]4O[C@H](COC(=O)c5ccc(-c6ccc(OC)cc6)cc5)[C@@H](O)[C@H](O)[C@H]4O)[C@H](O)[C@@H](O)[C@@H]3O)cc2)cc1 [UM1070] | 2 | 100 | 3 | 33.3 |  |  |  |
| CC(C)(C)c1cc(C(=O)OC[C@H]2O[C@H](O[C@H]3O[C@H](COC(=O)c4cc(C(C)(C)C)cc(C(C)(C)C)c4)[C@@H](O)[C@H](O)[C@H]3O)[C@H](O)[C@@H](O)[C@@H]2O)cc(C(C)(C)C)c1 [UM1047] | 0.9 | 1.2 | 1 | 11 |  |  |  |
| CC(C)(C)CC(C)(C)c1ccc(O)c(C(=O)OC[C@H]2O[C@H](O[C@H]3O[C@H](COC(=O)c4cc(C(C)(C)CC(C)(C)C)ccc4O)[C@@H](O)[C@H](O)[C@H]3O)[C@H](O)[C@@H](O)[C@@H]2O)c1 [UM1117] | 11 | 3 | 9 | 33.3 |  |  |  |
| CC(C)(C)c1cc(C(C)(C)C)c(O)c(C(=O)OC[C@H]2O[C@H](O[C@H]3O[C@H](COC(=O)c4c(O)c(C(C)(C)C)cc(C(C)(C)C)c4O)[C@@H](O)[C@H](O)[C@H]3O)[C@H](O)[C@@H](O)[C@@H]2O)c1O [UM1046] | 0.8 | 0.4 | 3 | 20 |  |  |  |
| COc1cc(OC)cc(C(=O)OC[C@H]2O[C@H](O[C@H]3O[C@H](COC(=O)c4cc(OC)cc(OC)c4)[C@@H](O)[C@H](O)[C@H]3O)[C@H](O)[C@@H](O)[C@@H]2O)c1 [UM1014] |  |  |  |  | 3.3 | 37 | inactive |
| CCOc1cc(C(=O)OC[C@H]2O[C@H](O[C@H]3O[C@H](CO)[C@@H](O)[C@H](O)[C@H]3O)[C@H](O)[C@@H](O)[C@@H]2O)cc(OCC)c1OCC [UM1120] | 11 | 2.5 | 0.3 | 100 |  |  |  |
